The target in this assay is T1, human RXFP1 (Homo sapiens, UniProt Q9HBX9).
T1 sequence (Q9HBX9 1-757): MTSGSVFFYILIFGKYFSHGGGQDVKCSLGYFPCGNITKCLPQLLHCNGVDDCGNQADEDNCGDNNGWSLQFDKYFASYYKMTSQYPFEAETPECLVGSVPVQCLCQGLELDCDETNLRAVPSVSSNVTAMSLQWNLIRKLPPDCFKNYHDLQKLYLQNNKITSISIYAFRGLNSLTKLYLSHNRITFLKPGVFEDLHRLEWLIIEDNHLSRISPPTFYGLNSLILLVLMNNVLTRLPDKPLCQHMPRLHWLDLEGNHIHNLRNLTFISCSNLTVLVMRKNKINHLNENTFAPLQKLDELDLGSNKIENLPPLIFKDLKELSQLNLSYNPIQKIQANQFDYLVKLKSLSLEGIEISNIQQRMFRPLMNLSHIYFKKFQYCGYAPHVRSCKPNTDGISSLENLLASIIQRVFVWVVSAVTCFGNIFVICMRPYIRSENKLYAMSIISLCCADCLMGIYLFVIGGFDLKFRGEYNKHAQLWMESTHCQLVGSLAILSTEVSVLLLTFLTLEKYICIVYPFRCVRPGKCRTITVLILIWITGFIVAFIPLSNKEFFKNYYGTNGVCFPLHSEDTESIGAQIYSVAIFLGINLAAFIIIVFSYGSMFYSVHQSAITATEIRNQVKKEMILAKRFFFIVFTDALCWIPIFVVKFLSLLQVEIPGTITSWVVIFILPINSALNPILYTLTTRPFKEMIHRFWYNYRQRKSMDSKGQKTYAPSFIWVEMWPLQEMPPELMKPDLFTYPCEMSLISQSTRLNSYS
The assay can be described thus: RXFP1 Hu cAMP (Test A). Type of assay: cell-based. On the set-up: expressed in transfected cells; host or cells: Jump-In T-REx CHO-K1 cells (ThermoFisher), induced with 10 ng/ml doxycycline for 24 h. Conditions: RXFP1 Hu cAMP; for pEC50: read-out: Test A EC50. The procedure, abridged: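 Competitive HTRF cAMP readout (2 h, room temperature) in CHO-K1 cells stably expressing human RXFP1, induced with 10 ng/ml doxycycline for 24 h; IBMX 0.5 mM final.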

SMILES strings stand for the structures. pEC50: −log10 of the molar value.

As a reminder, the pEC50 is the EC50 on a negative log10 scale, so that one unit is a factor of ten. Turning to `COc1cc(F)c(OCc2ccc(C(C)(C)C(=O)O)cc2)cc1C(=O)N[C@H]1[C@@H](C(=O)Nc2cccc(S(=O)(=O)C(F)(F)F)c2)[C@@H]2C=C[C@H]1C2` (racemic) [Example 452], the “Test A Sinf” value is 104% and the pEC50 is 6.01. Turning to `COc1cc(F)c(-c2cnc(CCC(=O)O)cn2)cc1C(=O)N[C@@H]1[C@@H]2CC[C@@H](C2)[C@@H]1C(=O)Nc1cccc(S(=O)(=O)C(F)(F)F)c1` (racemic) [Example 324, rac-3-(5-(2-Fluoro-4-methoxy-5-(((1R,2R,3S,4S)-3-((3-((trifluoromethyl)sulfonyl)phenyl)carbamoyl)bicyclo[2.2.1]heptan-2-yl)carbamoyl)phenyl)pyrazin-2-yl)propanoic acid], the “Test A Sinf” value came out at 101% and the negative-log EC50 (pEC50) is 6.72. On to `COc1cc(F)c(-c2nc(C(=O)O)cs2)cc1C(=O)N[C@H]1[C@@H](C(=O)Nc2cccc(S(=O)(=O)C(F)(F)F)c2)[C@@H]2C=C[C@H]1C2` (racemic) [Example 286], for which the “Test A Sinf” value stood at 29%. For the compound `COc1cc(F)c(OC2CCC(CO)(C(=O)O)CC2)cc1C(=O)NC1CC(OC)CC1C(=O)NCC1(C)CCC1` (single isomer, unassigned) [Example 551, (1R,4s)-4-(2-Fluoro-4-methoxy-5-(((1S*,2R*,4R*)-4-methoxy-2-(((1-methylcyclobutyl)methyl)carbamoyl)cyclopentyl)carbamoyl)phenoxy)-1-(hydroxymethyl)cyclohexane-1-carboxylic acid], the “Test A Sinf” value is reported as 107% and the negative logarithm of the EC50 (pEC50) is 6.15. For `COc1cc(C#N)c(O[C@H]2CC[C@@](C)(C(=O)O)CC2)cc1C(=O)N[C@@H]1[C@H]2CC[C@H](C2)[C@@H]1C(=O)NC[C@H]1C[C@@H](C)C1` [Example 124] the same measures were 101% and 6.80.

As for `COc1c(F)cc(O[C@H]2CC[C@@](C)(C(=O)O)CC2)cc1C(=O)N[C@@H]1[C@H]2CC[C@H](C2)[C@@H]1C(=O)NC12CC(F)(C1)C2` [Example 390], the “Test A Sinf” value was found to be 95% and the pEC50 is 6.74.

With `COc1cc(-c2cc(C(=O)N[C@@H]3[C@H]4CC[C@H](C4)[C@@H]3C(=O)Nc3cccc(S(=O)(=O)C(F)(F)F)c3)c(OC)cc2F)ccc1CCC(=O)O` [Example 259, 3-(2′-Fluoro-3,4′-dimethoxy-5′-(((1S,2R,3S,4R)-3-((3-((trifluoromethyl)sulfonyl)phenyl)carbamoyl)bicyclo[2.2.1]heptan-2-yl)carbamoyl)-[1,1′-biphenyl]-4-yl)propanoic acid], the “Test A Sinf” value is 97% and the negative-log EC50 (pEC50) is 7.24. On the same counts, the results for `COc1cc(F)c(-c2ccc([C@@H](C(=O)O)N(C)C)cc2)cc1C(=O)N[C@@H]1[C@H]2CC[C@H](C2)[C@@H]1C(=O)Nc1cccc(S(=O)(=O)C(F)(F)F)c1` (racemic) [Example 295] are 100% and 6.30. With `COc1ccc(Oc2ccccc2C(=O)O)cc1C(=O)N[C@H]1[C@@H](C(=O)Nc2cccc(S(=O)(=O)C(F)(F)F)c2)[C@@H]2C=C[C@H]1C2` (racemic) [Example 429], the negative logarithm of the EC50 (pEC50) was below 4.40.

For `COc1cc(F)c(OC2CCC(O)(C(=O)O)CC2)cc1C(=O)N[C@@H]1[C@@H]2CC[C@@H](C2)[C@@H]1C(=O)Nc1cccc(S(=O)(=O)C(F)(F)F)c1` (relative stereo) [Example 583, (1R,4r)-4-(2-Fluoro-4-methoxy-5-(((1R*,2R*,3S*,4S*)-3-((3-((trifluoromethyl)sulfonyl)phenyl)carbamoyl)bicyclo[2.2.1]heptan-2-yl)carbamoyl)phenoxy)-1-hydroxycyclohexane-1-carboxylic acid], the “Test A Sinf” value was found to be 84% and the pEC50 was 6.46.

Regarding `COc1cc(F)c(OCC23CCC(C(=O)O)(CC2)CC3)cc1C(=O)N[C@@H]1[C@H]2CC[C@H](C2)[C@@H]1C(=O)Nc1cccc(S(=O)(=O)C(F)(F)F)c1` [Example 441], the pEC50 was below 4.40.

These data come from patent US11667602B2, “Compounds and their use” (AstraZeneca AB, priority 2020, dated 2023).
